Laboratory results as given in patent US20220169639A1 (priority 2018, published 2022).

What follows are compounds tested on HBeAg (surrogate marker for cccDNA) in HepDES19 cells (assay: Engineered HepDES19 primary screen assay (HBeAg ELISA)). Details: Hepatitis B virus, 120 h, HBeAg in culture supernatant, 5 days incubation, read-out: IC50 (HepDES19 primary screen assay, inhibition of extracellular HBeAg level).
Format: cell-based, HBV
Summary of the method: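 HepDES19 cells pre-induced by Tet withdrawal for 8 days, frozen, then seeded and dosed after 24 h with half-log compound dilutions (1% DMSO final). After 5 days at 37 °C, HBeAg measured by ELISA and viability by CCK-8; IC50 from 4-parameter logistic fit.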
`NC(=O)C1CSCCN1CCOc1cc(Br)ccc1-c1cc(=O)c2cccc(Cl)c2o1` (stereo not drawn) [Example 085, 4-[2-[5-bromo-2-(8-chloro-4-oxo-chromen-2-yl)phenoxy]ethyl]thiomorpholine-3-carboxamide] gave an IC50 of 1.08 µM. Compound `O=C(O)[C@@H]1CCCN1CCCOc1cc(Br)ccc1-c1cc(=O)c2cccc(Cl)c2o1` [Example 004, (2S)-1-[3-[5-bromo-2-(8-chloro-4-oxo-chromen-2-yl)phenoxy]propyl]pyrrolidine-2-carboxylic acid] has an IC50 of 2.02 µM. In the case of `Cc1ccc(-c2cc(=O)c3cccc(Cl)c3o2)c(OCCN(C(=O)C(=O)O)C2CC2)c1` [Example 135, 2-[2-[2-(8-chloro-4-oxo-chromen-2-yl)-5-methyl-phenoxy]ethyl-cyclopropyl-amino]-2-oxo-acetic acid], the IC50 is reported as 0.21 µM. Work on `O=c1cc(-c2ccc(C(F)(F)F)cc2OCCNS(=O)(=O)C2CC2)oc2c(Cl)cccc12` [Example 096] yielded an IC50 of 0.13 µM. Compound `O=C(NCCCOc1cc(C(F)(F)F)ccc1-c1cc(=O)c2cccc(Cl)c2o1)C(=O)NS(=O)(=O)C1CC1` [Example 149, N-[3-[2-(8-chloro-4-oxo-chromen-2-yl)-5-(trifluoromethyl)phenoxy]propyl]-N′-cyclopropylsulfonyl-oxamide] has an IC50 of 8.79 µM. Work on `CC(C)(COc1cc(C(F)(F)F)ccc1-c1cc(=O)c2cccc(Cl)c2o1)NC(=O)C(=O)O` [Example 115] yielded an IC50 of 1.04 µM. `COc1cc(C)cc(OCCNC(=O)C(=O)O)c1-c1cc(=O)c2cccc(Cl)c2o1` [Example 118] showed an IC50 of 1.98 µM. For `C[C@@H]1CN(CCOc2cc(Br)ccc2-c2cc(=O)c3cccc(Cl)c3o2)C[C@H]1C(=O)O` [Example 024, (3S,4S)-1-[2-[5-bromo-2-(8-chloro-4-oxo-chromen-2-yl)phenoxy]ethyl]-4-methyl-pyrrolidine-3-carboxylic acid], the IC50 was 1.04 µM. For `CCOC(=O)C(=O)NCCCOc1cc(C(F)(F)F)ccc1-c1cc(=O)c2cccc(Cl)c2o1` [Example 100, ethyl 2-[3-[2-(8-chloro-4-oxo-chromen-2-yl)-5-(trifluoromethyl)phenoxy]propylamino]-2-oxo-acetate], the IC50 was 3.84 µM. In the case of `O=C(O)C1CCN(CCOc2ccccc2-c2cc(=O)c3cccc(Cl)c3o2)CC1` [Example 029, 1-[2-[2-(8-chloro-4-oxo-chromen-2-yl)phenoxy]ethyl]piperidine-4-carboxylic acid], the IC50 is reported as 1.85 µM. With `O=c1cc(-c2ccccc2O)oc2cc(O)ccc12` [Example F-1, 7-hydroxy-2-(2-hydroxyphenyl)chromen-4-one, reference compound] the IC50 was over 50 µM. `Cc1cc(F)c(-c2cc(=O)c3cccc(Cl)c3o2)c(OCCNC(=O)C(=O)O)c1` [Example 112] was tested, and the IC50 was 0.49 µM. `Cc1ccc(-c2cc(=O)c3cccc(Cl)c3o2)c(OCCN2C(=O)N[C@@H](C(C)C)C2=O)c1` [Example 152] was tested, and the IC50 was 0.48 µM. Compound `COc1cc(OCCOCCN2CC[C@H](C(=O)O)C2)c(-c2cc(=O)c3cccc(Cl)c3o2)cc1C` [Example 051, (3S)-1-[2-[2-[2-(8-chloro-4-oxo-chromen-2-yl)-5-methoxy-4-methyl-phenoxy]ethoxy]ethyl]pyrrolidine-3-carboxylic acid] has an IC50 of 7.86 µM. `CCOC(=O)C(=O)NCCOc1cc(C)ccc1-c1cc(=O)c2cccc(Cl)c2o1` [Example 109, ethyl 2-[2-[2-(8-chloro-4-oxo-chromen-2-yl)-5-methyl-phenoxy]ethylamino]-2-oxo-acetate] showed an IC50 of 4.11 µM. Compound `O=C(NS(=O)(=O)C1CC1)C1CCCN1CCOc1cc(C(F)(F)F)ccc1-c1cc(=O)c2cccc(Cl)c2o1` (stereo not drawn) [Example 072, 1-[2-[2-(8-chloro-4-oxo-chromen-2-yl)-5-(trifluoromethyl)phenoxy]ethyl]-N-cyclopropylsulfonyl-pyrrolidine-2-carboxamide] has an IC50 of 2.89 µM. Work on `CCOC(=O)C(=O)NCCCOc1cc(C)ccc1-c1cc(=O)c2cccc(Cl)c2o1` [Example 095, ethyl 2-[3-[2-(8-chloro-4-oxo-chromen-2-yl)-5-methyl-phenoxy]propylamino]-2-oxo-acetate] yielded an IC50 of 9.3 µM. With `O=C(O)[C@@H]1C[C@H](NCCCOc2cc(Br)ccc2-c2cc(=O)c3cccc(Cl)c3o2)CCO1` (relative stereo) [Example 060, cis-4-[3-[5-bromo-2-(8-chloro-4-oxo-chromen-2-yl)phenoxy]propylamino]tetrahydropyran-2-carboxylic acid] the IC50 was 4.87 µM. For `CCOC(=O)C(=O)NCCOc1cc(OC)ccc1-c1cc(=O)c2cccc(Cl)c2o1` [Example 104], the IC50 was 9.65 µM. `O=C(O)C12CC(NCCOc3cc(Br)ccc3-c3cc(=O)c4cccc(Cl)c4o3)(C1)C2` [Example 026, 3-[2-[5-bromo-2-(8-chloro-4-oxo-chromen-2-yl)phenoxy]ethylamino]bicyclo[1.1.1]pentane-1-carboxylic acid] showed an IC50 of 0.46 µM. Work on `Cc1ccc(-c2cc(=O)c3cccc(Cl)c3o2)c(OCCCNC(=O)C(=O)O)c1` [Example 120] yielded an IC50 of 2.96 µM. In the case of `CS(=O)(=O)NC(=O)[C@H]1CCN(CCOc2cc(C(F)(F)F)ccc2-c2cc(=O)c3cccc(Cl)c3o2)C1` [Example 071, (3S)-1-[2-[2-(8-chloro-4-oxo-chromen-2-yl)-5-(trifluoromethyl)phenoxy]ethyl]-N-methylsulfonyl-pyrrolidine-3-carboxamide], the IC50 is reported as 1.03 µM. `O=C(O)C1CC(=O)N(CCCOc2cc(Br)ccc2-c2cc(=O)c3cccc(Cl)c3o2)C1` (stereo not drawn) [Example 169, 1-[3-[5-bromo-2-(8-chloro-4-oxo-chromen-2-yl)phenoxy]propyl]-5-oxo-pyrrolidine-3-carboxylic acid] was tested, and the IC50 was 0.99 µM. `Cc1ccc(S(=O)(=O)NC(=O)NCCCOc2cc(C)ccc2-c2cc(=O)c3cccc(Cl)c3o2)cc1` [Example 156, 1-[3-[2-(8-chloro-4-oxo-chromen-2-yl)-5-methyl-phenoxy]propyl]-3-(p-tolylsulfonyl)urea] gave an IC50 of 4.14 µM. `O=C(NS(=O)(=O)C1CC1)[C@@H]1CCN(CCCOc2cc(C(F)(F)F)ccc2-c2cc(=O)c3cccc(Cl)c3o2)C1` [Example 067, (3R)-1-[3-[2-(8-chloro-4-oxo-chromen-2-yl)-5-(trifluoromethyl)phenoxy]propyl]-N-cyclopropylsulfonyl-pyrrolidine-3-carboxamide] was tested, and the IC50 was 8.4 µM. Compound `CCNS(=O)(=O)N(C)CCOc1cc(C)ccc1-c1cc(=O)c2cccc(Cl)c2o1` [Example 136, 8-chloro-2-[2-[2-[ethylsulfamoyl(methyl)amino]ethoxy]-4-methyl-phenyl]-4-oxo-chromene] has an IC50 of 0.58 µM. `CS(=O)(=O)NC(=O)[C@@H]1CCN(CCCOc2cc(C(F)(F)F)ccc2-c2cc(=O)c3cccc(Cl)c3o2)C1` [Example 065, (3R)-1-[3-[2-(8-chloro-4-oxo-chromen-2-yl)-5-(trifluoromethyl)phenoxy]propyl]-N-methylsulfonyl-pyrrolidine-3-carboxamide] gave an IC50 of 7.21 µM. In the case of `O=c1cc(-c2ccc(Br)cc2OCCN[C@H]2CC[C@H](C(=O)O)CC2)oc2c(Cl)cccc12` [Example 056, trans-4-[2-[5-bromo-2-(8-chloro-4-oxo-chromen-2-yl)phenoxy]ethylamino]cyclohexanecarboxylic acid], the IC50 is reported as 1 µM. `O=C(O)CN(CCCOc1cc(C(F)(F)F)ccc1-c1cc(=O)c2cccc(Cl)c2o1)S(=O)(=O)C1CC1` [Example 145] was tested, and the IC50 was 14.3 µM. `CS(=O)(=O)NC(=O)[C@H]1CCN(CCOc2cc(Br)ccc2-c2cc(=O)c3cccc(Cl)c3o2)C1` [Example 069] showed an IC50 of 1.77 µM. `C[C@@H]1NC(=O)N(CCOc2cc(C(F)(F)F)ccc2-c2cc(=O)c3cccc(Cl)c3o2)C1=O` [Example 155] was tested, and the IC50 was 5.11 µM. Compound `CCOC(=O)C(=O)N(CCCOc1cc(C(F)(F)F)ccc1-c1cc(=O)c2cccc(Cl)c2o1)S(=O)(=O)CC` [Example 138, ethyl 2-[3-[2-(8-chloro-4-oxo-chromen-2-yl)-5-(trifluoromethyl)phenoxy]propyl-ethylsulfonyl-amino]-2-oxo-acetate] has an IC50 of 4.56 µM. Compound `Cc1ccc(-c2cc(=O)c3cccc(Cl)c3o2)c(OCCNS(N)(=O)=O)c1` [Example 161, 8-chloro-2-[4-methyl-2-[2-(sulfamoylamino)ethoxy]phenyl]-4-oxo-chromene] has an IC50 of 4.74 µM.
